What was measured:
Format in all cases: cell-based
[1] = tested on: Bacillus subtilis (CECT 356); test: minimum inhibition concentration and Kull synergy index of LAE / potassium sorbate; settings: for SI, synergy index: <1 synergism, 1 addition, >1 antagonism
Experimental: The invention is now explained by a number of examples. In these examples LAE and sorbate alone and in a number of different combinations have been investigated against a number of bacterial preparations. For the analysis usually an internal method was used. Conditions and medium were Mueller Hinton broth (pH 7.4) or (pH 5.0) for bacteria, Sabouraud broth (pH 5.8) for yeast and Sabouraud medium for moulds. […] The interaction of the two components of the antimicrobial mixture is calculated according to the method described by Kull et al. (Kull […]. and Mayer R. L., Applied Microbiology, 1961; 6:538-541). According to this method the so-called synergy index is calculated according to the following formula: Synergy index […]. […] All indicated symbols indicate a particular concentration leading to a particular end point, in this case the inhibition of growth of Bacillus subtilis, so that the selected end point is in fact the minimal inhibitory concentration (mic).

[2] = tested on: Bacillus megaterium (CECT 44); test: as above; settings: pH 7.4, aqueous solutions
Experimental: (§1) The invention is now explained by a number of examples. In these examples LAE and sorbate alone and in a number of different combinations have been investigated against a number of bacterial preparations. For the analysis usually an internal method was used. Conditions and medium were Mueller Hinton broth (pH 7.4) or (pH 5.0) for bacteria, Sabouraud broth (pH 5.8) for yeast and Sabouraud medium for moulds. The interaction of the two components of the antimicrobial mixture is calculated according to the method described by Kull et al. (Kull […]. and Mayer R. L., Applied Microbiology, 1961; 6:538-541). According to this method the so-called synergy index is calculated according to the following formula: Synergy index […]. […] Again the effects of the components alone and in combination have been calculated using the same method as described at Example 1.

[3] = tested on: Staphylococcus aureus (ATCC 6538); test: as above; settings: for SI, synergy index: <1 synergism, 1 addition, >1 antagonism
Experimental: as §1

[4] = tested on: Citrobacter intermedium (CECT 401); test: as above; settings: for SI, synergy index: <1 synergism, 1 addition, >1 antagonism
Experimental: (§2) The invention is now explained by a number of examples. In these examples LAE and sorbate alone and in a number of different combinations have been investigated against a number of bacterial preparations. For the analysis usually an internal method was used. Conditions and medium were Mueller Hinton broth (pH 7.4) or (pH 5.0) for bacteria, Sabouraud broth (pH 5.8) for yeast and Sabouraud medium for moulds. The interaction of the two components of the antimicrobial mixture is calculated according to the method described by Kull et al. (Kull […]. and Mayer R. L., Applied Microbiology, 1961; 6:538-541). According to this method the so-called synergy index is calculated according to the following formula: Synergy index […]. […] The same method was used as described for example 1. […] Again the effects of the components alone and in combination have been calculated using the same method as described at Example 1.

[5] = tested on: Candida albicans (ATCC 10231); test: as above; settings: for SI, synergy index: <1 synergism, 1 addition, >1 antagonism
Experimental: as §2, with “Conditions and medium were Mueller Hinton broth (pH 7.4) or (pH 5.0) for bacteria, Sabouraud broth (pH 5.8) for yeast and Sabouraud medium for moulds.” left out

[6] = tested on: Gram-Positive Bacteria, Gram-Negative Bacteria, Moulds and Yeasts; test: activity of LAE against listed microorganisms; settings: strains listed in b7
Description: • Arthrobacter oxydans ATCC 8010 • Bacillus cereus var mycoide ATCC 11778 • Bacillus subtilis ATCC 6633 • Bacillus megaterium CECT 44 • Clostridium perfringens ATCC 77454 • Clostridium perfringens CECT 486 • Listeria monocytogenes ATCC 7644 • Staphylococcus aureus ATCC 6538 • Micrococcus luteus ATCC 9631 • Lactobacillus delbrueckii ssp lactis CECT 372 Gram-Negative Bacteria • Alcaligenes faecalis ATCC 8750 • Bordetella bronchiseptica ATCC 4617 • Citrobacter freundii ATCC 22636 • Citrobacter intermedium CECT 401 • Enterobacter aerogenes CECT 689 • Escherichia coli ATCC 8739 • Escherichia coli 0157H7 • Klebsiella pneumoniae var pneumoniae CECT 178 • Proteus mirabilis CECT 170 • Pseudomonas aeruginosa ATCC 9027 • Salmonella typhimurium ATCC16028 • Serratia marcenses CECT 274 • Mycobacterium phlei ATCC 41423 Moulds and Yeasts • Aspergillus niger ATCC14604 • Aureobasidium pullulans ATCC 9348 • Cladosporium cladosporioides ATCC 16022 • Gliocadium virens ATCC 4645 • Chaetonium globosum ATCC 6205 • Penicillium chrysogenum CECT 2802 • Penicillium funiculosum CECT 2914 • Penicillium camemberti CECT 2267 • Candida albicans ATCC 10231 • Rhodotorula rubra CECT 1158 • Saccharomyces cerevisiae ATCC 9763

[7] = pH 7.4, propylene glycol solutions

CCCCCCCCCCCC(=O)N[C@@H](CCCNC(=N)N)C(=O)OCC.Cl [LAE, L-arginine, N^α-lauroyl-ethylester monohydrochloride]
QLAE, minimum inhibition concentration of LAE as single antimicrobial ([1]; pH 5.0): 29.3 | Qlae, minimum inhibition concentration of LAE in the mixture ([1]; pH 5.0): 29.3 | Qlae/QLAE ([1]; pH 5.0): 1.00 | Qs, minimum inhibition concentration of potassium sorbate in the mixture ([1]; pH 5.0): 0 | Qs/QS ([1]; pH 5.0): 0.00 | SI, synergy index ([1]; pH 5.0): 1.00 | QLAE, minimum inhibition concentration of LAE as single antimicrobial [1, 7]: 12.8 | Qlae, minimum inhibition concentration of LAE in the mixture [1, 7]: 12.8 | Qlae/QLAE [1, 7]: 1.00 | Qs, minimum inhibition concentration of potassium sorbate in the mixture [1, 7]: 0 | Qs/QS [1, 7]: 0.00 | SI, synergy index [1, 7]: 1.00 | QLAE, minimum inhibition concentration of LAE as single antimicrobial [2]: 6.4 | Qlae, minimum inhibition concentration of LAE in the mixture [2]: 6.4 | Qlae/QLAE [2]: 1 | Qs, minimum inhibition concentration of potassium sorbate in the mixture [2]: 0 | Qs/QS [2]: 0.00 | SI, synergy index ([2]; <1 synergism, 1 addition, >1 antagonism): 1.00 | QLAE, minimum inhibition concentration of LAE as single antimicrobial ([3]; pH 5.0): 29.3 | Qlae, minimum inhibition concentration of LAE in the mixture ([3]; pH 5.0): 29.3 | Qlae/QLAE ([3]; pH 5.0): 1.00 | Qs, minimum inhibition concentration of potassium sorbate in the mixture ([3]; pH 5.0): 0 | Qs/QS ([3]; pH 5.0): 0.00 | SI, synergy index ([3]; pH 5.0): 1.00 | QLAE, minimum inhibition concentration of LAE as single antimicrobial ([3]; pH 7.4, aqueous solutions): 3.2 | Qlae, minimum inhibition concentration of LAE in the mixture ([3]; pH 7.4, aqueous solutions): 3.2 | Qlae/QLAE ([3]; pH 7.4, aqueous solutions): 1.0 | Qs, minimum inhibition concentration of potassium sorbate in the mixture ([3]; pH 7.4, aqueous solutions): 0 | Qs/QS ([3]; pH 7.4, aqueous solutions): 0.00 | SI, synergy index ([3]; pH 7.4, aqueous solutions): 1.00 | QLAE, minimum inhibition concentration of LAE as single antimicrobial ([4]; pH 5.0): 12.8 | Qlae, minimum inhibition concentration of LAE in the mixture ([4]; pH 5.0): 12.8 | Qlae/QLAE ([4]; pH 5.0): 1.00 | Qs, minimum inhibition concentration of potassium sorbate in the mixture ([4]; pH 5.0): 0 | Qs/QS ([4]; pH 5.0): 0.00 | SI, synergy index ([4]; pH 5.0): 1.00 | QLAE, minimum inhibition concentration of LAE as single antimicrobial ([4]; pH 7.4, aqueous solutions): 25.6 | Qlae, minimum inhibition concentration of LAE in the mixture ([4]; pH 7.4, aqueous solutions): 25.6 | Qlae/QLAE ([4]; pH 7.4, aqueous solutions): 1.00 | Qs, minimum inhibition concentration of potassium sorbate in the mixture ([4]; pH 7.4, aqueous solutions): 0 | Qs/QS ([4]; pH 7.4, aqueous solutions): 0.00 | SI, synergy index ([4]; pH 7.4, aqueous solutions): 1.00 | QLAE, minimum inhibition concentration of LAE as single antimicrobial ([5]; pH 5.0): 29.3 | Qlae, minimum inhibition concentration of LAE in the mixture ([5]; pH 5.0): 29.3 | Qlae/QLAE ([5]; pH 5.0): 1.00 | Qs, minimum inhibition concentration of potassium sorbate in the mixture ([5]; pH 5.0): 0 | Qs/QS ([5]; pH 5.0): 0.00 | SI, synergy index ([5]; pH 5.0): 1.00 | QLAE, minimum inhibition concentration of LAE as single antimicrobial ([5]; pH 7.4, aqueous solutions): 25.60 | Qlae, minimum inhibition concentration of LAE in the mixture ([5]; pH 7.4, aqueous solutions): 25.60 | Qlae/QLAE ([5]; pH 7.4, aqueous solutions): 1.00 | Qs, minimum inhibition concentration of potassium sorbate in the mixture ([5]; pH 7.4, aqueous solutions): 0.00 | Qs/QS ([5]; pH 7.4, aqueous solutions): 0.00 | SI, synergy index ([5]; pH 7.4, aqueous solutions): 1.00 | activity against the listed microorganisms [6]: activity
